Assay results from ChEMBL document CHEMBL3580535, “The biological characteristics of a novel camptothecin-artesunate conjugate” (Bioorg Med Chem Lett, 2015).
Calls of active or inactive are those of the source. The rule behind the calls is not given here.

What was measured:
Albumin [1] = target: T1, Albumin (Bos taurus, UniProt P02769); test: Binding affinity to bovine serum albumin assessed as quenching constant at 298K by fluorescence spectroscopy; assay type: ADME; settings: cattle, isolated protein
T1 sequence (P02769 whole entry): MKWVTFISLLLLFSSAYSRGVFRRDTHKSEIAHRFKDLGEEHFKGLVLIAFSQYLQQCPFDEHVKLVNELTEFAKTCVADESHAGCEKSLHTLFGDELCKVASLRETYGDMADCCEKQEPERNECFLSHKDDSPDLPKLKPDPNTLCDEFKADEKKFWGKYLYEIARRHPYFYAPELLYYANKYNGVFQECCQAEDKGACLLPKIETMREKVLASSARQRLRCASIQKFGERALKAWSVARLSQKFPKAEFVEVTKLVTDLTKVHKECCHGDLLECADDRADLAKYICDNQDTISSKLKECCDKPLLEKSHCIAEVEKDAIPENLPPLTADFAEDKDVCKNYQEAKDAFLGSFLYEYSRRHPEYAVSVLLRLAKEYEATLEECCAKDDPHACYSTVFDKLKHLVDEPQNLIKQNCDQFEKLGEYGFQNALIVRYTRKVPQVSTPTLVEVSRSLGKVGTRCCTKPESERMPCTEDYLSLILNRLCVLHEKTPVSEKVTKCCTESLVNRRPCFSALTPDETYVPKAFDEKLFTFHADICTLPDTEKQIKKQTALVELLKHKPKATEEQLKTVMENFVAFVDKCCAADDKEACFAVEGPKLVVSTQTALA

Albumin [2] = target: T1, Albumin; test: Binding affinity to bovine serum albumin assessed as quenching constant at 310K by fluorescence spectroscopy; assay type: ADME; settings: cattle, isolated protein
Mus musculus [3] = test: Toxicity in mouse assessed as animal death at 0.43 mmol, ip; assay type: organism-based; settings: in vivo
Mus musculus [4] = test: Toxicity in mouse assessed as body weight loss at 0.43 mmol, ip; assay type: organism-based; settings: in vivo
[5] = target: Serotransferrin (Homo sapiens) (UniProt P02787); test: Binding affinity to transferrin (unknown origin) assessed as Stem-Volmer quenching constant at 310K by fluorescence spectroscopy
Serotransferrin (Homo sapiens), sequence (P02787 whole entry): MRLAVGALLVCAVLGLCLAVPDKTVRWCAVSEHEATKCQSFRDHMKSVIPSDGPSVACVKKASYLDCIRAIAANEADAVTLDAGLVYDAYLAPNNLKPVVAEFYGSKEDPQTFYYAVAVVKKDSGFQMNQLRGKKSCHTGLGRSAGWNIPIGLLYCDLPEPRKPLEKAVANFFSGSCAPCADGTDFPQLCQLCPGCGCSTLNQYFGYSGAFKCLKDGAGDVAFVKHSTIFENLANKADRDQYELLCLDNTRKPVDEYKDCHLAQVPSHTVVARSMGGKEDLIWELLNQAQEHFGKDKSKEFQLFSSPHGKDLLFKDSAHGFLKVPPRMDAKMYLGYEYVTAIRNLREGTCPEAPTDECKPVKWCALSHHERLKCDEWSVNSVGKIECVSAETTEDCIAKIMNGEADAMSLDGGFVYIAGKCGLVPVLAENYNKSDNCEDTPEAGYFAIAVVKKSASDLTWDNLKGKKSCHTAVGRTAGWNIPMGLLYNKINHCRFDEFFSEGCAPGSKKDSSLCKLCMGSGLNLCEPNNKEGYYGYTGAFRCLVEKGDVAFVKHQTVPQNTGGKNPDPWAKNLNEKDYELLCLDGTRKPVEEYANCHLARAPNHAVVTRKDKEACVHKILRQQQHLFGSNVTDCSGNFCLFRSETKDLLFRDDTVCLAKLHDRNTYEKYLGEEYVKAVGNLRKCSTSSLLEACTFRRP

Albumin [6] = target: T1, Albumin; test: Binding affinity to bovine serum albumin assessed as Stem-Volmer quenching constant at 298K by fluorescence spectroscopy; assay type: ADME; settings: cattle, isolated protein
Mus musculus [7] = test: Toxicity in BALB/c nude mouse assessed as body weight at 0.023 mmol/kg, ip administered every 2 days for 3 times measured on day 6 (reference value: 17.5 to 17.9 gms); assay type: organism-based; settings: in vivo
[8] = target: Serotransferrin (Homo sapiens) (UniProt P02787); test: Binding affinity to transferrin (unknown origin) assessed as Stem-Volmer quenching constant at 298K by fluorescence spectroscopy
SMMC-7721 = test: Cytotoxicity against human SMMC7721 cells assessed as inhibition of cell viability after 48 hrs by MTT assay; assay type: functional, cell-based
Mus musculus [9] = test: Toxicity in BALB/c nude mouse assessed as animal death at 0.023 mmol/kg, ip administered every 2 days for 3 times measured on day 6; assay type: organism-based; settings: in vivo, 48 h
Albumin [10] = target: T1, Albumin; test: Binding affinity to bovine serum albumin assessed as Stem-Volmer quenching constant at 310K by fluorescence spectroscopy; assay type: ADME; settings: cattle, isolated protein
MCF7 [11] = test: Cytotoxicity against human MCF7 cells assessed as inhibition of cell viability after 48 hrs by MTT assay; assay type: functional, cell-based
MCF7 [12] = test: Antitumor activity against human MCF7 cells xenografted in BALB/c nude mouse assessed as decrease in tumor volume at 0.023 mmol/kg, ip administered every 2 days for 3 times measured after day 6; assay type: functional
[13] = target: Serotransferrin (Homo sapiens) (UniProt P02787); test: Effect on transferrin (unknown origin) conformation at 4 to 20 uM by synchronous fluorescence spectroscopy
[14] = Half life in mouse plasma; assay type: ADME, cell-free
[15] = Half life in PBS solution at pH 7.4; assay type: ADME
Mus musculus [16] = test: Toxicity in mouse assessed as body weight loss at 1.72 mmol, ip; assay type: organism-based; settings: in vivo
Mus musculus [17] = test: Toxicity in mouse assessed as animal death at 0.43 to 1.72 mmol, ip; assay type: organism-based; settings: in vivo

Row | Compound | Kq (Albumin [1]) | Kq (Albumin [2]) | Activity (Mus musculus [3]) | Activity (Mus musculus [4]) | KSV [5] | KSV (Albumin [6]) | Activity (Mus musculus [7]) | KSV [8] | inhibition (SMMC-7721) | Activity (Mus musculus [9]) | KSV (Albumin [10]) | inhibition (MCF7 [11]) | inhibition in vivo at 23 µmol/kg (MCF7 [12]) | Activity [13] | half-life [14] | half-life [15] | Activity (Mus musculus [16]) | Activity (Mus musculus [17])
1 | CC[C@@]1(O)C(=O)OCc2c1cc1n(c2=O)Cc2cc3ccccc3nc2-1 [CAMPTOTHECIN] | 3.626 ×10¹² L/mol/s | 3.345 ×10¹² L/mol/s | Toxic | Toxic | 2.62 ×10⁴ L/mol | 3.626 ×10⁴ L/mol | 11.3 g | 4.35 ×10⁴ L/mol | Active | Toxic | 3.345 ×10⁴ L/mol | Active | 45.3% | inactive |  |  |  | 
2 | CC[C@@]1(OC(=O)CCC(=O)O[C@@H]2O[C@@H]3O[C@@]4(C)CC[C@H]5[C@H](C)CC[C@@H]([C@H]2C)[C@@]35OO4)C(=O)OCc2c1cc1n(c2=O)Cc2cc3c(CN(C)C)c(O)ccc3nc2-1 | 2.27 ×10¹² L/mol/s | 1.03 ×10¹² L/mol/s |  |  | 2.22 ×10⁴ L/mol | 2.27 ×10⁴ L/mol | 15.5 g | 2.36 ×10⁴ L/mol | Dose-dependent effect | Non-toxic | 1.03 ×10⁴ L/mol | Dose-dependent effect | 50.2% | inactive | 4 h | 15 h | Toxic | Non-toxic
3 | C[C@H]1[C@H](OC(=O)CCC(=O)O)O[C@@H]2O[C@@]3(C)CC[C@H]4[C@H](C)CC[C@@H]1[C@@]24OO3 [ARTESUNATE] |  |  |  | Toxic |  |  | 16.1 g |  | Active | Non-toxic |  | Active |  |  |  |  |  | 
4 | CC[C@@]1(O)C(=O)OCc2c1cc1n(c2=O)Cc2cc3c(CN(C)C)c(O)ccc3nc2-1 [TOPOTECAN] |  |  |  |  |  |  | 13.6 g |  |  | Toxic |  |  | 70.2% |  |  |  |  | 
